In US20090253778A1, “DNA composition against tumor stromal antigen FAP and methods of use thereof” (priority 2006, published 2009):

Tests used:
[1] = tested on: CT26 colon carcinoma cells; assay: nuclear apoptosis by Hoechst-33342 dye staining in chemoresistant CT26 clone; type: cell-based, Murine; conditions: resistant CT26 clone, 48 hours
Description: (§1) Murine CT26 and D2F2 carcinoma cells were cultured in the presence of either 1% DMSO, etoposide, 5-fluorouracil, doxorubicin, vinblastine or paclitaxel (Sigma, St. Louis, Mo.) at the concentrations indicated. After 48 hours, apoptotic nuclei were counted after incubation with the DNA-specific Hoechst-33342 dye (2 μM; Molecular Probes, Eugene, Oreg.).
(§2) Two clones of CT26 colon cancer and D2F2 breast cancer cells, respectively, have acquired chemoresistance (see FIG. 1, Panel C).

[2] = tested on: parent CT26 cell line (ATCC #CLR-2326); assay: IC50 in original parent CT26 cell line; type: cell-based, Murine; conditions: Mus musculus
From the text: as §2

[3] = tested on: D2F2 breast carcinoma cells; assay: prophylactic setting, orthotopic D2F2 tumor growth, with or without doxorubicin; type: in vivo, BALB/c mice
Description: Oral immunization, tumor cell challenge and treatment with doxorubicin. […] Med., 2002, 8: 1369-1375. Animals were challenged about 10 days later by subcutaneous (s.c.) injection of about 3×10^4 CT26 colon carcinoma cells in the left front flank or by orthotopic (o.t.) injection of about 3×10^5 D2F2 breast cancer cells in the left, second lowest mammary fat pad.
Tumor volume (in mm^3) was calculated by measuring the tumor in 2 dimensions (i.e., length and width, in millimeters) and calculating the volume as one half the length times the square of the width. In the therapeutic setting, the initial tumor cell inoculation was by intravenous (i.v.) injection of about 1×10^5 CT26 colon carcinoma cells followed about 3 and 10 days later by oral vaccinations with control vaccine or active DNA compositions. After about 18 days, the lungs were weighed (normal lung weight was about 0.2 g) and pulmonary tumor metastases were examined and scored by visual evaluation assessing the percentage of lung surface covered by fused metastases as follows: score of 0 for 0% coverage, score of 1 for less than about 20% coverage, score of 2 for about 20-50% coverage, score of 3 for greater than about 50% of lung surface covered. Treatment with doxorubicin was performed in groups of mice with about 10 mg/kg doxorubicin (Sigma) administered i.v., 5, 10 and 15 days after tumor challenge. […]

[4] = tested on: D2F2 breast carcinoma cells; assay: nuclear apoptosis by Hoechst-33342 dye staining in resistant D2F2 cells; type: cell-based, Murine
Description: as §1, §2

CC[C@]1(O)C[C@@H]2CN(CCc3c([nH]c4ccccc34)[C@@](C(=O)OC)(c3cc4c(cc3OC)N(C)[C@H]3[C@@](O)(C(=O)OC)[C@H](OC(C)=O)[C@]5(CC)C=CCN6CC[C@]43[C@@H]65)C2)C1 [vinblastine] was tested. Which “nuclear apoptosis (Hoechst-33342 dye staining)” value (shortened to “nuclear apoptosis”) ([1]; only at 5 μM) did it give?
The value was “slight apoptotic effect”.

How did the “nuclear apoptosis” value ([1]; concentration as high as 100 μM) turn out when O=c1[nH]cc(F)c(=O)[nH]1 [5-FU, 5-fluorouracil] was run?
The value was “not able to induce nuclear apoptosis”.

What about the IC50 [2] of the same molecule?
The IC50 was about 1850 nM.

COc1cccc2c1C(=O)c1c(O)c3c(c(O)c1C2=O)C[C@@](O)(C(=O)CO)C[C@@H]3O[C@H]1C[C@H](N)[C@H](O)[C@H](C)O1 [doxorubicin] was tested. Which tumor growth ([3]; orthotopic D2F2, doxorubicin or PBS 5, 10 and 15 days after challenge) did it give?
Its tumor growth is “only able to suppress, but not eradicate tumor growth”.

And the “complete rejection of tumors” value ([3]; single agent alone)?
The value was “not observed”.

What about the “sensitivity of D2F2 cells” value ([4]; FIG. 1, Panel C) of the same molecule?
The value was “partially sensitive”.

What about the “nuclear apoptosis” value ([4]; resistant D2F2 cells, 48 hours, highest concentration of 1 μM) of the same molecule?
The value was “able to induce nuclear apoptosis”.
